From patent US12699067B2, “Electrochemical biosensor and the manufacturing method thereof” (China Medical University, priority 2023, dated 2026)

Test system: human non-small cell lung cancer cell line (A549 cell line)
Test: Detection of heat shock protein (Hsp70) released from paclitaxel-treated A549 cells with the Hsp70 electrochemical immunosensor
Type: cell-based
Settings: A549 cell line treated with 0, 75, 100 μM Paclitaxel; culture solution as control; FIG. 12
Text: It was known that the expression of heat shock protein (Hsp70) was highly correlated with the growth of cancer cells. The present invention further uses Hsp70 electrochemical immunosensor (BSA/antiHsp70/EN-LC/Au@MnO2/MoO3) to detect heat shock protein (Hsp70) in human non-small cell lung cancer cell line (A549 cell line).
Therefore, the Hsp70 electrochemical immunosensor provided by the present invention could be used for detecting heat shock protein (Hsp70).

With `CC(=O)O[C@H]1C(=O)[C@@]2(C)[C@H]([C@H](OC(=O)c3ccccc3)[C@]3(O)C[C@H](OC(=O)[C@H](O)[C@@H](NC(=O)c4ccccc4)c4ccccc4)C(C)=C1C3(C)C)[C@]1(OC(C)=O)CO[C@@H]1C[C@@H]2O` [paclitaxel, Paclitaxel] the “curve (the radius) of Hsp70 electrochemical immunosensor, indicating bound heat shock protein (Hsp70) released by the cells” value was “increased”.
